Data: patent US12398141B2 (SHANGHAI SYNERGY PHARMACEUTICAL SCIENCES CO., LTD, priority 2019, dated 2025)

Legend:
Blast T cell = test: Cell proliferation test of IL-2 stimulated Blast T cell; type: cell-based; conditions: Homo sapiens; IL-2 stimulated Blast T cell proliferation, 72 hours
Description: Inhibiting test of the compounds of the invention on proliferation of Blast T cell and TF-1 cell (American type culture collection) was carried out by the following method. The tested compounds […], and […] were dissolved in dimethyl sulfoxide from 0.0006 to 10 μM in quadruplicate dilutions. […] 10 μg/ml […] was added to stimulate and obtain cells with a density of 2×10^6/mL, which were incubated for 3 days. The cells were washed with phosphate buffer for three times and IL-2 (100 u/ml) was added to stimulate for 1 week. Cells were suspended using the culture medium and seeded at 5×10^4 cell/well density into 96-well plates, and incubated for 1 h with the prepared test compound or DMSO control at various concentrations from 0.0006 to 10 μM diluted by 4-fold volume. After incubation with 20 u/ml of IL-2 (50 μl/well without reference well) for 72 hours, Celltiter Glo® reagent (Promega, G7571) was added and mixed for 5 minutes, then incubated for 30 minutes at room temperature. The luminescence value was read on SpectraMax L (Molecular Device). […] The IC50 values of the corresponding compounds were then obtained by fitting by using the XLFit fitting tool in excel.

TF-1 cell = TF-1 cell proliferation test; type: cell-based; conditions: Homo sapiens, 72 h
Description: Inhibiting test of the compounds of the invention on proliferation of Blast T cell and TF-1 cell (American type culture collection) was carried out by the following method. The tested compounds […], and […] were dissolved in dimethyl sulfoxide from 0.0006 to 10 μM in quadruplicate dilutions. […] The luminescence value was read on Microplate Reader (Molecular Device). […] The IC50 values of the corresponding compounds were then obtained by fitting by using the XLFit fitting tool in excel.

male ICR mice = test: Carrageenan-induced paw swelling in mice; type: in vivo; conditions: 10 mg/kg intragastric; for Paw swelling_0.5 h (%): 0.5 h; for Paw swelling rate_1 h (%): 1 h; for Paw swelling rate_2 h (%): 2 h
Description: (§1) The inhibiting effects of compounds H01, H07, H11, H12, H14, H15, H22, H25, H29, H30, H33, H39 and H44 on paw swelling in mice were determined after intragastric administration by using male ICR mice (ShanghaiSippr-BK laboratory animal Co. Ltd.), aged 8 weeks and weighing 22-24 g as test animals. The anti-inflammatory pharmacodynamics characteristic of the compounds of the invention was discussed.
A certain amount of compounds were taken and dissolved in 4% Tween 80/0.5% hydroxy propyl methyl cellulose solution. A volume of intragastric administration in mice was 10 ml/kg.
Mice were given 10 mg/kg compounds H01, H07, H11, H12, H14, H15, H22, H25, H29, H30, H33, H39, and H44 and the positive drug indomethacin (Diamond Reagent Co., Ltd., China) by intragastric administration at the dosages shown in the table below and 20 μL 1% (W/V) carrageenan was injected subcutaneously into the plantar 0.5 h later. A paw volume was measured with a paw swelling meter before and at different time points after modeling (0.5 h, 1 h and 2 h). According to the formula: paw swelling rate=(paw volume after administration−basic paw volume)/basic paw volume×100, the inhibiting effect of the compounds on paw volume was calculated. The basic paw volume was a paw volume before administration.

Sprague-Dawley (SD) mice = test: Concanavalin-induced paw swelling in mice; type: in vivo; conditions: 10 mg/kg intragastric; for Paw swelling rate_1 h (%): 1 h; for Paw swelling rate_2 h (%): 2 h; for Paw swelling rate_4 h (%): 4 h; for Paw swelling rate_6 h (%): 6 h
Description: as §1, with “H13,” for “H01, H07, H11, H12,”, “H09, H11” for “H15, H22, H25, H29, H30, H33, H39”, “compounds of Example 12” for “H44”, “Sprague-Dawley (SD)” for “male ICR”, “6-7” for “8”, “160-180” for “22-24”
A certain amount of compounds were taken and dissolved in 4% Tween 80/0.5% hydroxy propyl methyl cellulose solution.
Mice were given compounds H01, H07, H11, H12, H14, H15, H22, H25, H29, H30, H33, H39, and H44 and the positive drug indomethacin (Diamond Reagent Co., Ltd., China) by intragastric administration at the dosages shown in the table below and 0.1 ml 0.03% (W/V) concanavalin was injected subcutaneously into the plantar 0.5 h later. A paw volume was measured with a paw swelling meter before modeling and 1 h, 2 h, 4 h and 6 h after modeling. According to the formula: paw swelling rate=(paw volume after administration−basic paw volume)/basic paw volume×100, the inhibiting effect of the compounds on paw volume was calculated. The basic paw volume was a paw volume before administration.

| SMILES | IC50 (Blast T cell) [µM] | IC50 (TF-1 cell) [µM] | Paw swelling_0.5 h (%) (male ICR mice) | Paw swelling rate_1 h (%) (male ICR mice) | Paw swelling rate_2 h (%) (male ICR mice) | Paw swelling rate_1 h (%) (Sprague-Dawley (SD) mice) | Paw swelling rate_2 h (%) (Sprague-Dawley (SD) mice) | Paw swelling rate_4 h (%) (Sprague-Dawley (SD) mice) | Paw swelling rate_6 h (%) (Sprague-Dawley (SD) mice) |
| --- | --- | --- | --- | --- | --- | --- | --- | --- | --- |
| CN(c1c(C#N)cnc2[nH]ccc12)[C@H]1C[C@@H]2CN(C(=O)NCC(F)(F)F)C[C@@H]2C1 [Compound H22, (3aR,5s,6aS)-4-({2-[(2,2,2-trifluoroethyl)-carbamoyl]-hexahydrocyclopenta[c]pyrrole-5-yl}-methyl-amino)-1H-pyrrolo[2,3-b]pyridin-5-carbonitrile] | 0.019 | 1.76 | 31.22 ± 2.62 | 41.76 ± 1.20 | 42.25 ± 5.67 | 29.80 ± 2.00 | 29.10 ± 3.00 | 31.00 ± 2.90 | 31.00 ± 2.90 |
| CN(c1c(C#N)cnc2[nH]ccc12)[C@H]1C[C@@H]2CN(C(=O)Nc3nc(OCC(C)(C)N)ns3)C[C@@H]2C1 [Compound H44, (3aR,5s,6aS)-5-((5-cyano-1H-pyrrolo[2,3-b]pyridin-4-yl)(methyl)amino)-N-(3-(2-amino-2-methyl-propoxy)-1,2,4-thiadiazole-5-yl)hexahydrocyclopentadiene[c]pyrrole-2(1H)-carboxamide] | 0.014 | 0.73 | 31.03 ± 2.43 | 42.65 ± 2.21 | 41.56 ± 3.32 | 23.80 ± 1.60 | 24.80 ± 2.50 | 24.20 ± 2.90 | 23.50 ± 2.90 |
| C[C@@H]1CCN(C(=O)CC#N)C[C@@H]1N(C)c1c(C#N)cnc2[nH]ccc12 [Compound H11, 4-{[(3R,4R)-1-(2-cyanoacetyl)-4-methylpiperidin-3-yl]-methyl-amino}-1H-pyrrolo[2,3-b]pyridin-5-carbonitrile] | 0.013 | 0.68 | 30.22 ± 2.62 | 39.76 ± 1.20 | 40.25 ± 5.47 | 23.50 ± 2.40 | 25.80 ± 3.30 | 31.00 ± 2.10 | 32.00 ± 2.10 |
| CCCS(=O)(=O)N[C@H]1C[C@@H](N(C)c2c(C#N)cnc3[nH]ccc23)C1 [Compound H14, (cis)-4-{[3-(propanesulfonamido)-cyclobutyl-1-yl]-methyl-amino}-1H-pyrrolo[2,3-b]pyridin-5-carbonitrile] | 0.017 | 0.63 | 39.03 ± 4.53 | 40.65 ± 2.51 | 39.00 ± 4.25 | 32.10 ± 5.20 | 25.90 ± 5.00 | 25.50 ± 4.00 | 25.10 ± 4.20 |
| COc1nsc(NC(=O)N2C[C@H]3C[C@H](N(C)c4c(C#N)cnc5[nH]ccc45)C[C@H]3C2)n1 [Compound H07, (3aR,5s,6aS)-4-({2-[(3-methoxy-1,2,4-thiadiazole-5-yl)carbamoyl]-hexahydrocyclopenta[c]pyrrole-5-yl}-methyl-amino)-1H-pyrrolo[2,3-b]pyridin-5-carbonitrile] | 0.024 | 0.073 | 37.02 ± 1.35 | 42.33 ± 2.20 | 41.24 ± 3.36 | 25.20 ± 2.10 | 32.10 ± 1.70 | 22.30 ± 4.20 | 21.30 ± 4.20 |
| CN(c1c(C#N)cnc2[nH]ccc12)[C@H]1C[C@@H]2CN(C(=O)Nc3ccc(Cl)c(C(F)(F)F)c3)C[C@@H]2C1 [Compound H25, (3aR,5s,6aS)-N-(4-chloro-3-(trifluoromethyl)phenyl)-5-((5-cyano-1H-pyrrolo[2,3-b]pyridin-4-yl)(methyl)amino)hexahydrocyclopentadiene[c]pyrrole-2(1H)-carboxamide] | 0.02 | 0.73 | 37.45 ± 4.37 | 44.64 ± 3.68 | 44.66 ± 5.58 | 32.10 ± 5.20 | 26.90 ± 5.00 | 24.50 ± 4.00 | 24.50 ± 4.00 |
| N#Cc1cnc2[nH]ccc2c1N[C@H]1C[C@@H](NS(=O)(=O)CCC(F)(F)F)C1 [Compound H12, (cis)-4-{[3-(3,3,3-trifluoropropanesulfonamido)-cyclobutyl-1-yl]-amino}-1H-pyrrolo[2,3-b]pyridin-5-carbonitrile] | 0.011 | 1.67 | 38.45 ± 4.37 | 45.64 ± 3.58 | 41.66 ± 5.38 | 28.90 ± 2.00 | 23.10 ± 3.00 | 24.00 ± 2.90 | 24.00 ± 3.00 |
| CN(C)c1nsc(NC(=O)N2C[C@H]3C[C@H](N(C)c4c(C#N)cnc5[nH]ccc45)C[C@H]3C2)n1 [Compound H33, (3aR,5s,6aS)-4-({2-[(3-dimethylamino-1,2,4-thiadiazole-5-yl)carbamoyl]-hexahydrocyclopenta[c]pyrrole-5-yl}-methyl-amino)-1H-pyrrolo[2,3-b]pyridin-5-carbonitrile] | 0.023 | 1.1 | 30.78 ± 2.62 | 31.76 ± 1.86 | 41.75 ± 5.67 | 27.80 ± 2.00 | 29.20 ± 3.10 | 30.10 ± 2.90 | 30.10 ± 2.90 |
| CN(c1c(C#N)cnc2[nH]ccc12)[C@H]1C[C@@H](NS(=O)(=O)CCC(F)(F)F)C1 [Compound H15, (cis)-4-{[3-(3,3,3-trifluoropropanesulfonamide)-cyclobutyl-1-yl]-methyl-amino}-1H-pyrrolo[2,3-b]pyridin-5-carbonitrile] | 0.014 | 0.073 | 36.02 ± 1.37 | 43.33 ± 2.30 | 43.24 ± 4.36 | 24.50 ± 2.50 | 25.90 ± 3.40 | 32.00 ± 2.30 | 31.00 ± 2.30 |
| N#Cc1cnc2[nH]ccc2c1N1CC2CN(C(=O)NCC(F)(F)F)CC21 (stereo not drawn) [Compound H39, 6-(5-cyano-1H-pyrrolo[2,3-b]pyridin-4-yl)-N-(2,2,2-trifluoroethyl)-3,6-diazabicyclo[3.2.0]heptane-3-carboxamide] | 0.015 | 0.69 | 30.45 ± 1.74 | 26.44 ± 3.68 | 38.99 ± 5.58 | 31.10 ± 2.30 | 25.60 ± 4.00 | 26.30 ± 3.30 | 25.30 ± 3.30 |
